Experiment [1] has as its system isolated rabbit thoracic aorta (potential-dependent calcium channel). Description: Calcium Entry Blockade test: 45Ca influx in vascular rings. To be noted: for calcium channel blocking / calcium entry blockade activity: overall result in words. An excerpt: (§1) A fourth test for determining the ability of compounds of the invention to act as anti-hypertensive agents is the Calcium Entry Blockade test using vascular smooth muscle. Male New Zealand White Rabbits (H.A.R.E.) (body weight=1.8-2.4 kg) are sacrificed by cervical fracture and the thoracic aorta is removed under standard HEPES buffer. The aorta is rinsed in several changes of standard HEPES and cleared of extraneous tissue. Scissors are used to segment the aorta into 3 mm rings (approximately 12 rings/aorta). For studies of tension, individual rings are equilibrated for one hour in standard HEPES buffer under isometric tension (1 g) between two parallel horizontal wires. For calcium influx studies, the following procedures are executed. After completion of the one-hour equilibration period, the test is begun. To baths containing vascular rings to be tested for the effects of an experimental agent on calcium influx in the basal state (absence of an agonist), the agent dissolved in 20 μl of vehicle (PEG 300 or H2 O) is added and a parallel vehicle bath is started receiving the vehicle alone. To baths containing vascular rings to be tested for the effects of an experimental agent on calcium influx during agonist stimulation, the experimental agent is added in a fashion identical to that described for the basal test and parallel vehicle baths are also initiated. All baths are allowed to equilibrate for 30 minutes. Subsequently, to basal test baths, 20 μl of H2 O is added; to baths receiving KCl, 400 μl of H2 O containing 60 mM KCl is added; to baths receiving NE, 20 μl of H2 O containing 10 μM NE is added. All baths are allowed to equilibrate for an additional 281/2 minutes. At this time, all rings in each bath are removed from their respective bath, quickly but gently blotted and transferred to a bath containing an identical solution but also containing ^45 Ca(20 μl, 2.5 μCi/ml; New England Nuclear, Boston, MA). Rings are allowed exposure to the radiolabelled solution for exactly three minutes. Subsequently, the rings are removed, blotted to remove excess fluid, and placed in predesignated test tubes containing ice cold wash solution where they are allowed to equilibrate for 45 minutes in the presence of vigorous bubbling with 100% O2. Subsequently, individual rings are removed, blotted, weighed (Mettler Balance model AE 163), and placed in a scintillation vial containing 2 ml of 7.5 mM EDTA solution (pH=10.0). Vials are held overnight in darkness. […] Subsequently, 13 ml of Beckman HP scintillation fluid is added to each vial with shaking, vials are cleaned, and counted using a Beckman LS 6800 liquid scintillation counter. Blanks containing solutions alone are simultaneously counted to provide background information.
(§2) For tension studies, the following procedures are executed. After completion of the one-hour equilibration period, the test is begun. At this time, all tissue tensions are adjusted mechanically back to the 1 gram baseline. Subsequently, all tissue baths receive either KCl (60 mM) plus phentolamine (1 μM) in 400 μl H2 O or NE (10 μM in 20 μl PEG 300). All rings are allowed to develop tension for exactly 30 minutes. Subsequently, the bathing solution is removed and replaced immediately with normal HEPES buffer without experimental agents and the tension response is allowed to "wash out". Two subsequent washes are introduced at 10 minute intervals before the rings can achieve the prestimulation baseline tone. Subsequently, the experimental drug or vehicle is added to each bath and the rings are allowed to equilibrate for exactly 30 minutes. Finally, the agonist challenge is repeated as described previously in the presence of the experimental agent. […]

Experiment [2] relates to isolated rabbit thoracic aorta. Kind of experiment: Calcium Entry Blockade test: tension (tone) of vascular rings. To be noted: for inhibition at 10 µM: Oryctolagus cuniculus, 10 μM compound.
Source text: as §1, §2

The test system of experiment [3] is Beta Adrenergic. Description: Evaluation of Potential Beta Adrenergic Blocking Activity. The arrangement: species or system guinea pig. To be noted: overall result in words.
The subject of experiment [4] is spontaneously hypertensive rats. Description: Spontaneously Hypertensive Rat (SHR) test, mean arterial pressure via aortic cannula. It counts as in vivo. To be noted: 30 mg per kg of body weight, p.o. An excerpt: The activity of compounds of formula (I) for the treatment of hypertension may be determined using the Spontaneously Hypertensive Rat (SHR) test as described below.
In this test, the arterial pressure of adult spontaneously hypertensive rats (Charles River) is monitored directly via an aortic cannula. The SH rats are anesthetized with an inhalation anesthetic (ether). The left carotid artery is isolated and cannulated. The tip of the cannula is advanced to the aorta and the cannula is exteriorized behind the neck at the level of the scapula. Animals are placed in individual cages and allowed to recover from the anesthetic and are kept unrestrained. The arterial cannula is connected to the pressure transducer which is attached to the recorder. The test compounds are administered to at least 3 rats at doses selected in the range of 0.1 to 100 mg/kg of body weight by intraperitoneal (i.p.) or oral (p.o.) routes of administration. The arterial pressure and heart rate are monitored for a minimum of 24 hours. A test compound is considered to be active as an antihypertensive agent if the mean arterial pressure (MAP) indicates a fall of >15 mm of Hg. Each animal serves as its own control.

The target in experiment [5] is T1, Beta-1 (Cavia porcellus, UniProt H0W3H1).
T1 construct: The atria were mounted in 50 ml baths in Krebs-bicarbonate buffer; from tissue; host or cells: guinea pig atria (isolated atrial pairs, female animals)
To be noted: guinea pig atrial pairs, isoproterenol tachycardia, Schild plot; read-out: pA2 (converted).

For experiment [6], the system named is Isolated Heart (coronary arteries). Description: Langendorff's Isolated Heart model (coronary vasodilation). The procedure:
In addition to their utility in the treatment of hypertension, the compounds of formula (I) are useful in the treatment of the symptoms of angina pectoris by virtue of their ability to dilate coronary arteries. Often, peripheral arteries are also dilated by compounds which dilate coronary arteries and thus, this test is also useful for predicting activity as an antihypertensive. Compounds of the invention were tested in this regard in the "Langendorff's Isolated Heart" model as generally described in "Pharmaceutical Experiments on Isolated Preparations", Staff of the Department of Pharmacology, University of Edinbourgh, 2nd Ed., Churchill, Livingston, N.Y. (1970) pages 112-119. In this test, the compound of the invention of formula (I) produced in Example 6b. required a 0.04 μM concentration to elicit a 30% increase in flow.

[7] abbreviates: KCl stimulated, 1.0 and 10.0 μM.
[8] abbreviates: isolated Langendorff test, 0.01 to 3.0 μM.

Like-named read-outs stand apart in the source and are kept apart here.

T1 sequence (H0W3H1 1-470): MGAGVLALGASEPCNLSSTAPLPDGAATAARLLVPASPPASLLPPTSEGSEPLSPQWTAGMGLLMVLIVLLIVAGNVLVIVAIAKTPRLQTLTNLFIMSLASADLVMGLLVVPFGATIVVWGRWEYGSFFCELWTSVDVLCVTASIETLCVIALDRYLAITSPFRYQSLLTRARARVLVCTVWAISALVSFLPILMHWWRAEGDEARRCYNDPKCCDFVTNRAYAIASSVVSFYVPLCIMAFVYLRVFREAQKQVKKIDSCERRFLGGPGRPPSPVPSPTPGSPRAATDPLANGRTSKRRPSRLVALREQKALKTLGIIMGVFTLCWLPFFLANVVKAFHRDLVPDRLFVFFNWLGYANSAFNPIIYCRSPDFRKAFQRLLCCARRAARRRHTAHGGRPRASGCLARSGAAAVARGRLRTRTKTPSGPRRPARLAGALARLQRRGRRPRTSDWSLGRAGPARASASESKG

As to `CC(C)(C)NCC(O)COc1ccccc1C#Cc1ccccc1.Cl` (stereo not shown) [Example 1d, 1-[(1,1-Dimethylethyl)amino]-3-[2-(phenylethynyl)phenoxy]-2-propanol Hydrochloride], the “inhibition of KCl stimulated calcium influx” value in experiment [1] (KCl stimulated, 10 μM compound) was found to be 100%. Besides, the “inhibition of KCl stimulated effects on calcium influx” value in experiment [1] (setting [7]) was “dose dependent inhibition”. Further, in experiment [1] (isolated rabbit thoracic aorta), the “blockade of the potential-dependent calcium channel” value is listed as “significant blockade” and the “calcium channel blocking / calcium entry blockade activity” value is recorded as “calcium entry blockade activities”. Also, in experiment [1], the “effect on norepinephrine-induced calcium influx” value was “no effect”. The “inhibition of KCl stimulated effects on tone” value in experiment [2] (setting [7]) is on record as “dose dependent inhibition”. Besides, the inhibition at 10 µM in experiment [2] (KCl stimulated, read-out: inhibition of KCl stimulated tone) worked out at 100%. The “blockade of related vascular tone” value in experiment [2] (isolated rabbit thoracic aorta) is given as “significant blockade”. Besides, the “effect on norepinephrine-induced tone / tension” value in experiment [2] is reported as “no effect”. Moreover, in experiment [3], the β-blocking activity result was “β-blocking”.

In the case of `CN(C)c1ccc(C#Cc2ccccc2OCC(O)CNC(C)(C)C)cc1.O=C(O)/C=C/C(=O)O` (stereo not shown) [Example 16, 1-[(1,1-Dimethylethyl)amino]-3-[2-[(4-dimethylaminophenyl)ethynyl]phenoxy]-2-propanol (E)-2-Butenedioate (1:1)], the “maximum change in mean arterial blood pressure (fall)” value in experiment [4] is listed as 69 mm of Hg. For the same compound, the “effect on KCl-dependent calcium flux” value in experiment [1] (KCl-dependent, 10 μM compound) was “no effect”. Also, the “calcium channel blocking / calcium entry blockade activity” value in experiment [1] (isolated rabbit thoracic aorta) is “did not exhibit typical calcium channel blocking activity”. Also, in experiment [1], the “effect on norepinephrine-induced calcium influx” value is reported as “reduced norepinephrine-induced calcium flux”. The inhibition at 10 µM in experiment [2] (KCl-dependent, read-out: reduction of KCl-dependent contractile activity) worked out at 50%. Further, the “effect on norepinephrine-induced tone / tension” value in experiment [2] is “without changing tension”.

Regarding `CC(=O)Nc1cccc(C#Cc2ccccc2OCC(O)CNC(C)(C)C)c1` (stereo not shown) [Example 18, N-[3-[[2-[3-[(1,1-Dimethylethyl)amino]-2-hydroxypropoxy]phenyl]ethynyl]phenyl]acetamide 4-methylbenzene sulfonate], in experiment [5], the Kb was 7.08 nM.

`COc1ccc(C#Cc2ccccc2)c(OCC(O)CNCCc2ccc(OC)c(OC)c2)c1` (stereo not shown) [Example 6b, 1-[[2-(3,4-Dimethyoxyphenyl)ethyl]amino]-3-[5-methoxy-2-(phenylethynyl)phenoxy]-2-propanol (E)-2-Butenedioate (2:1)]: the EC30 in experiment [6] (Langendorff isolated heart, 30% increase in flow, read-out: concentration required to elicit a 30% increase in flow) was 40 nM. The activation at 0.1 µM in experiment [6] (at 0.1 μM) amounted to 39%. For the same compound, in experiment [6] (setting [8]), the coronary vasodilator activity result is “active coronary vasodilator”, the “effect on contractile force” value was “no effect” and the “effect on spontaneous rate” value is recorded as “no effect”.

For the origin of these results see patent US4652584A, “Acetylenic phenoxypropanol derivatives and pharmaceutical compositions for the treatment of hypertension” (McNeilab, Inc., priority 1984, dated 1987).
